The values that follow come from publication PMC7745062 (Acta Pharmaceutica Sinica. B, 2020).

A short description of data set [1]: Metabolic stability in rat liver microsomes. It is filed as in vitro ADME. The following applies: for half-life at 0.1 μmol/L: rat, pH 7.4. In general terms: Liver microsomes are a subcellular fraction often used to study metabolism.
In data set [2] the test system is monocrotaline (MCT)-induced PAH rat model. Description: Monocrotaline. It is filed as in vivo. The following applies: for mean pulmonary artery pressure (mPAP) / right ventricle hypertrophy index (RVHI%) / wall thickness percentage (WT%): p.o. for 3 weeks, 14·3HCl 2.5 mg/kg, tadalafil 5.0 mg/kg, vs model group.
A further data set deals with PDE7A1 (130–482) (Homo sapiens, UniProt Q13946). Description: In vitro enzymatic activity assay, PDE7A1.
The next data set concerns KM mice. Description: Acute toxicity after single oral dose in mice. It is filed as in vivo.
A further data set has as its target PDE9A2 (181–506) (Homo sapiens, UniProt O76083). Description: In vitro enzymatic activity assay, PDE9A2.
For the next data set, the target named is PDE2A (580–919) (Homo sapiens, UniProt O00408). Description: In vitro enzymatic activity assay, PDE2A.
Another data set addresses PDE10A (449–770) (Homo sapiens, UniProt Q9Y233). Description: In vitro enzymatic activity assay.
Data set [3] deals with hERG potassium channel (versus PDE10A) (Homo sapiens, UniProt Q12809). Description: in vitro.
The target of the next data set is PDE4D2 (86–413) (Homo sapiens, UniProt Q08499). Description: In vitro enzymatic activity assay, PDE4D2.
Data set [4] is described as follows: Solubility in deionized water. It is filed as physicochemical. Conditions: pH 7, water.
The target in data set [5] is T1, human ether-à-go-go-related gene (hERG) potassium channel (Homo sapiens, UniProt Q12809). Description: cell-based. Conditions: hERG IC50, peak tail current inhibition, 2−3 cells per concentration. In general terms: hERG is a cardiac potassium channel; its block is linked to QT prolongation.
The target in the next data set is PDE8A1 (480–820) (Homo sapiens, UniProt O60658). Description: In vitro enzymatic activity assay, PDE8A1.
The next data set addresses PDE1B (10–487) (Homo sapiens, UniProt Q01064). Description: In vitro enzymatic activity assay, PDE1B.
A short description of data set [6]: In vivo pharmacokinetics of 14·3HCl in rats. Also on record: species or system Sprague–Dawley rats.
Another data set concerns the target PDE5A1 (535–860) (Homo sapiens, UniProt O76074). Description: In vitro enzymatic activity assay, PDE5A1.
The next data set addresses PDE3A (679–1087) (Homo sapiens, UniProt Q14432). Description: In vitro enzymatic activity assay, PDE3A.
Data set [7] concerns the target T1, human ether-à-go-go-related gene (hERG) potassium channel.
Data set [8] can be described thus: Reactivity with cysteine in aqueous phase. Conditions: Cys ratio 1:1, 1H NMR in D2O against time. It counts as physicochemical.
Data set [9] in a line: Metabolic stability in rat liver microsomes. It counts as in vitro ADME. The following applies: RLM t1/2 (elimination half-life).
Setting [10] is: male, Sprague-Dawley, rat, plasma, iv, 2.5 mg/kg.
The mark [11] stands for this setting: male, Sprague-Dawley, rat, plasma, po, 10 mg/kg.

Structures are written as SMILES. Entries after “also recorded” stand apart in the source; their conditions may differ.

Chain of PDE9A2 (181–506) (O76083 241-566): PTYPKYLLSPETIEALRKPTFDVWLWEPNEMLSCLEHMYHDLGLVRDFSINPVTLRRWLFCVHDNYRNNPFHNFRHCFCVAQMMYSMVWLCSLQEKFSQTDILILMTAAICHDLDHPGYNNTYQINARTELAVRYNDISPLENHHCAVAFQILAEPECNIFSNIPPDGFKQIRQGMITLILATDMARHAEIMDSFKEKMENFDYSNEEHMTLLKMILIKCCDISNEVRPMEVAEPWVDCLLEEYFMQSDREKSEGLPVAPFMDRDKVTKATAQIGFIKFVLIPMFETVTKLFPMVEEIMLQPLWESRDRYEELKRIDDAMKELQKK
Chain of PDE8A1 (480–820) (O60658 480-820): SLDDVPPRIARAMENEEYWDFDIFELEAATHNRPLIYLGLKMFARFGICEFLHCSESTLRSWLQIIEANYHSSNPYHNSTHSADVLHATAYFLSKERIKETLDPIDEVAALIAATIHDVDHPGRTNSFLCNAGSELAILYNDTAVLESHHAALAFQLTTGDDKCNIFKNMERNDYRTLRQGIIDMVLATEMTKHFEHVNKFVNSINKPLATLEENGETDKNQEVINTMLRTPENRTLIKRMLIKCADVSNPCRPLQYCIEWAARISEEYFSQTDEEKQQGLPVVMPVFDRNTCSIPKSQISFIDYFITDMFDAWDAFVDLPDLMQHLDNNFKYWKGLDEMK
T1 sequence (Q12809 whole entry): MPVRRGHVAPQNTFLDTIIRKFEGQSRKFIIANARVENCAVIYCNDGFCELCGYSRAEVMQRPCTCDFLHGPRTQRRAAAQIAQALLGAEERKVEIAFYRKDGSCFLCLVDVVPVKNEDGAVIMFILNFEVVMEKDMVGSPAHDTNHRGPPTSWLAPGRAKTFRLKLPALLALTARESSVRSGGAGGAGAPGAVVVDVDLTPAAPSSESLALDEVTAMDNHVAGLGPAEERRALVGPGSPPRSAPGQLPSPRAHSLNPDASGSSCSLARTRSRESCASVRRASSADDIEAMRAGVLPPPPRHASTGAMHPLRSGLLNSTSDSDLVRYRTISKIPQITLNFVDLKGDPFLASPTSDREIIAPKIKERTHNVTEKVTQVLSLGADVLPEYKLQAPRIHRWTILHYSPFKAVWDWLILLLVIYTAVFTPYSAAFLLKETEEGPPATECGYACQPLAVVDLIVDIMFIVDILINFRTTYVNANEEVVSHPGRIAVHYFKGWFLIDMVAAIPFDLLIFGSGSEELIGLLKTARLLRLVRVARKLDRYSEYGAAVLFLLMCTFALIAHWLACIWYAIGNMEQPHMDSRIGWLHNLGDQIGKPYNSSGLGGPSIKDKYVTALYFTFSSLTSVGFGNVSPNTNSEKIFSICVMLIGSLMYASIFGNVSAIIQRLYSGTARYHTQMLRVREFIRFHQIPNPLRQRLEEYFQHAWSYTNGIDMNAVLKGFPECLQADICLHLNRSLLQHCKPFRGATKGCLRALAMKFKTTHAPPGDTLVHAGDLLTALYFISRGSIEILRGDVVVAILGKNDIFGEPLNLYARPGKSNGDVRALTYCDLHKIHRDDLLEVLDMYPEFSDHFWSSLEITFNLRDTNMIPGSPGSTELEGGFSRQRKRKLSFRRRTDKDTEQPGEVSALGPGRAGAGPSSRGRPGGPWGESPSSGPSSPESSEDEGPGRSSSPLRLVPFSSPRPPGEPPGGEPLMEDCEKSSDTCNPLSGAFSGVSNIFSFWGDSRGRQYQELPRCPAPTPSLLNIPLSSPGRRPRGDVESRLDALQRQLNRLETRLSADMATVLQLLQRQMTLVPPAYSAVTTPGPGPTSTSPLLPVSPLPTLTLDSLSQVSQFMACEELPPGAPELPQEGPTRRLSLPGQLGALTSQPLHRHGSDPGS
Chain of PDE7A1 (130–482) (Q13946 130-482): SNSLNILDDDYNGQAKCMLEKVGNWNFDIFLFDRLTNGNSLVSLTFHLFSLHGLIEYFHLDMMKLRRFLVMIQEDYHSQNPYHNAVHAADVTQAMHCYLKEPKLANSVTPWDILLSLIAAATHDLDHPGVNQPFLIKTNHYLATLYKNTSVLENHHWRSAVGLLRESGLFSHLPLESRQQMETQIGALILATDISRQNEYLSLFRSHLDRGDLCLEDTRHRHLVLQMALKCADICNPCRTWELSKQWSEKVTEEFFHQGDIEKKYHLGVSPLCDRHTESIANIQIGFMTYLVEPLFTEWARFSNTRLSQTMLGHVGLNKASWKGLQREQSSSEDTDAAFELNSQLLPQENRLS
Chain of PDE1B (10–487) (Q01064 10-487): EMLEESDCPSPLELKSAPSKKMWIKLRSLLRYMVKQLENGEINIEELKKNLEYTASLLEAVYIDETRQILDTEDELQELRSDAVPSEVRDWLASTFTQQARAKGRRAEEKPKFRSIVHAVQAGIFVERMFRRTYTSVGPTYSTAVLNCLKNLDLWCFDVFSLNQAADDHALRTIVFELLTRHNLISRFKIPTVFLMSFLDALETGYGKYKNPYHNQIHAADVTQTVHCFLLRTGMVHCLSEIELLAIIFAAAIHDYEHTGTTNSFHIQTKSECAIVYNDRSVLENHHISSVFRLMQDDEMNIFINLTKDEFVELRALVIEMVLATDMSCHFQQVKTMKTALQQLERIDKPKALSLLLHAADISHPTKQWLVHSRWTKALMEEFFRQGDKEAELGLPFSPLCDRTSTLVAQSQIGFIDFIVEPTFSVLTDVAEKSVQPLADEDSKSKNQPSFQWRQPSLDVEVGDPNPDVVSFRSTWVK
Chain of PDE3A (679–1087) (Q14432 679-1087): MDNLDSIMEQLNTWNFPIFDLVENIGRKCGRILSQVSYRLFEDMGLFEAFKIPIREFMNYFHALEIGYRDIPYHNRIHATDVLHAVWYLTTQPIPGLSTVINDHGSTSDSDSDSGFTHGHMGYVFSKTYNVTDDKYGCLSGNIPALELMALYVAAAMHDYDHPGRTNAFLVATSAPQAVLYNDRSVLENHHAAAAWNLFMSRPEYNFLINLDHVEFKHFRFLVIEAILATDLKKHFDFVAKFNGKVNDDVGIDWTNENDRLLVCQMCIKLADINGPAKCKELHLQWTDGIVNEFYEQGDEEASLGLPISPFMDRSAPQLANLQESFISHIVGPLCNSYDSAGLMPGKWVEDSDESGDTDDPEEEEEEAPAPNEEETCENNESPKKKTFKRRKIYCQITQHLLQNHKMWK
Chain of PDE4D2 (86–413) (Q08499 388-715): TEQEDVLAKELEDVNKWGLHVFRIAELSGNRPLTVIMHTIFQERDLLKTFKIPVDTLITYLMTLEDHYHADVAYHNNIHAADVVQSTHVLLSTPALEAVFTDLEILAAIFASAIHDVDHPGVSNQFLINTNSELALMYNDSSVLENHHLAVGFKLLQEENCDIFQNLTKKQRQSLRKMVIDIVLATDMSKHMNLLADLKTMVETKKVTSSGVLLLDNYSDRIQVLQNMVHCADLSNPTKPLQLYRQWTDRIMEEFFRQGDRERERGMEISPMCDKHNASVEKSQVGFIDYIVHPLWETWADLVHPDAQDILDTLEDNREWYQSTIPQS
Chain of PDE2A (580–919) (O00408 580-919): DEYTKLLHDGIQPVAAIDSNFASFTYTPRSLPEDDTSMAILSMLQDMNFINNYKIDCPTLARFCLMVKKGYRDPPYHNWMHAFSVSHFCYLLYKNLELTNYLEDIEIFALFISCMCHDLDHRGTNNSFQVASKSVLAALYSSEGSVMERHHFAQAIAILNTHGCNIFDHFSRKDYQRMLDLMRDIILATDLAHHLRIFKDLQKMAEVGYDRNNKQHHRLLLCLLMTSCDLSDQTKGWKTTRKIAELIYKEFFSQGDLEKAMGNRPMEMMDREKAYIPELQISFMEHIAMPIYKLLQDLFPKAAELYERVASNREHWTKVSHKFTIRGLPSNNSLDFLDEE
Chain of PDE10A (449–770) (Q9Y233 715-1036): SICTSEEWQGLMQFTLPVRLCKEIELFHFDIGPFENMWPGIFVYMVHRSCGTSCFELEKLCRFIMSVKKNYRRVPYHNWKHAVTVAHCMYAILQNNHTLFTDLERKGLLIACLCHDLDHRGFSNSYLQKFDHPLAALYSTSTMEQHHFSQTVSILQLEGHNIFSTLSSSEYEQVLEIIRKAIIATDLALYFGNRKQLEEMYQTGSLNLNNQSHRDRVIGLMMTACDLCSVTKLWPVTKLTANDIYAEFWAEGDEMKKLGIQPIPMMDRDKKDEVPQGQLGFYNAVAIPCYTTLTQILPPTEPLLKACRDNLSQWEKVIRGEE

`Cc1ccc2c(c1)nc(/C=C/c1cccc3cccnc13)n2-c1cccc(CN2CCN(C)CC2)c1` [Compound 12, (E)-8-(2-(5-Methyl-1-(3-((4-methylpiperazin-1-yl)methyl)phenyl)-1H-benzo[d]imidazole-2-yl)vinyl) quinoline]: in [1], the “CLint (intrinsic body clearance)” value is recorded as 198.1 mL/(min·g·protein) and the half-life at 0.1 μmol/L was 11 min.

`Cc1ccc2c(c1)nc(/C=C/c1cccc3cccnc13)n2-c1cccc(S(=O)(=O)N2CCN(C)CC2)c1` [Compound 11, (E)-8-(2-(5-Methyl-1-(3-((4-methylpiperazin-1-yl)sulfonyl)phenyl)-1H-benzo[d]imidazole-2-yl)vinyl) quinoline]: in data set [1], the “CLint (intrinsic body clearance)” value was 1390 mL/(min·g·protein) and the half-life at 0.1 μmol/L came out at 1.5 min.

Consider `CN1CC(=O)N2[C@H](c3ccc4c(c3)OCO4)c3[nH]c4ccccc4c3C[C@@H]2C1=O` [tadalafil, reference compound], for which, in data set [2], the “mean pulmonary artery pressure (mPAP)” value is listed as “decreased”, the “right ventricle hypertrophy index (RVHI%)” value is on record as “decreased” and the “wall thickness percentage (WT%)” value was “decreased”.

Consider `Cc1ccc2c(c1)nc(/C=C/c1cccc3cccnc13)n2-c1cccc(OCCCN2CCN(C)CC2)c1.Cl` [Compound 14·3HCl, (E)-8-(2-(5-Methyl-1-(3-(3-(4-methylpiperazin-1-yl)propoxy)phenyl)-1H-benzo[d]imidazole-2-yl)vinyl)quinoline hydrochloride], for which the IC50 on PDE7A1 (130–482) is over 10 µM; at PDE9A2 (181–506) it was over 10 µM; against PDE2A (580–919), over 10 µM; against PDE4D2 (86–413), over 10 µM; in data set [5], 4.5 µM; against PDE8A1 (480–820), over 10 µM. In addition, the IC50 against PDE1B (10–487), against PDE5A1 (535–860) and against PDE3A (679–1087) was over 10 µM each time. In addition, the Selectivity fold at PDE7A1 (130–482) (IC50(PDE7A1)/IC50(PDE10A2)), at PDE9A2 (181–506) (IC50(PDE9A2)/IC50(PDE10A2)), at PDE2A (580–919) (IC50(PDE2A)/IC50(PDE10A2)), at PDE4D2 (86–413) (IC50(PDE4D2)/IC50(PDE10A2)), at PDE8A1 (480–820) (IC50(PDE8A1)/IC50(PDE10A2)) and at PDE1B (10–487) (IC50(PDE1B)/IC50(PDE10A2)) was over 3500 fold throughout. Also, the Selectivity fold at PDE5A1 (535–860) (IC50(PDE5A1)/IC50(PDE10A2)) and on PDE3A (679–1087) (IC50(PDE3A)/IC50(PDE10A2)) was over 3500 fold each time. Further, the “improvement of PAH medical indicators” value in data set [2] (14·3HCl 2.5 mg/kg p.o. compared with tadalafil 5.0 mg/kg p.o.) is given as “comparable to tadalafil; also recorded: significantly ameliorating these PAH medical indicators; also recorded: significantly improved typical disease medical indicators”. Besides, the “mean pulmonary artery pressure (mPAP)” value in [2] is “decreased”. In addition, the “right ventricle hypertrophy index (RVHI%)” value in data set [2] was “decreased”. The “wall thickness percentage (WT%)” value in data set [2] is “decreased”. Besides, the acute toxicity result in the data set on KM mice (oral administration) was “no obvious acute toxicity”. The same molecule had a dose well tolerated in the data set on KM mice (single oral dose) of at most 1000 mg/kg. The “selectivity over other PDE subtypes” value on PDE10A (449–770) (against other PDE families) is on record as over 3500 fold. The selectivity ratio in data set [3] came out at 1600. This molecule also displayed a solubility in data set [4] of 4700 µg/mL. Moreover, the AUC(0-inf) stood at 1820 ± 297 ng·h/mL in data set [6] (setting [10]) and 3550 ± 1010 ng·h/mL in data set [6] (setting [11]). The AUC(0-t) in [6] (setting [10]) was 1670 ± 184 ng·h/mL; in data set [6] (setting [11]) it was 3310 ± 812 ng·h/mL. Moreover, the values for the maximum concentration (Cmax) in [6] (setting [10]) and in data set [6] (setting [11]) were 230 ± 50 ng/mL and 272 ± 25 ng/mL, respectively. Further, the mean residence time (MRT last) amounted to 378 ± 48 min in data set [6] (setting [10]) and 504 ± 42 min in data set [6] (setting [11]). Further, the Tmax in [6] (setting [10]) is 24 ± 24 min; in [6] (setting [11]) it was 360 ± 120 min. The molecule further gave a clearance in data set [6] (setting [10]) of 23.3 mL/min/kg. In addition, the values for the half-life in [6] (setting [10]) and in [6] (setting [11]) were 402 ± 90 min and 312 ± 54 min, respectively. Further, the “bioavailability, fold higher than A” value in data set [6] (rats, oral) was about 20 fold. Besides, the “CLint (intrinsic body clearance)” value in [1] is on record as 85.1 mL/(min·g·protein). Besides, the half-life at 0.1 μmol/L in data set [1] is 25 min. For the same molecule, in data set [7], the “safety margin between hERG IC50 and plasma peak concentration (Cmax)” value worked out at 36 fold. Further, the “reactivity of C=C bridge with cysteine” value in data set [8] is given as “insensitive to react with cysteine”.

For the molecule `COc1cccc(-n2c(/C=C/c3cccc4cccnc34)nc3cc(C)ccc32)c1` [Compound 10, (E)-8-(2-(1-(3-Methoxyphenyl)-5-methyl-1H-benzo[d]imidazole-2-yl)vinyl)quinoline], in data set [1], the “CLint (intrinsic body clearance)” value is 999.4 mL/(min·g·protein) and the half-life at 0.1 μmol/L was 2.1 min.

With `Cc1ccc2c(c1)nc(/C=C/c1cccc3cccnc13)n2-c1cccc(OCCCN2CCOCC2)c1.Cl` [13·3HCl, (E)-4-(3-(3-(5-Methyl-2-(2-(quinolin-8-yl)vinyl)-1H-benzo[d]imidazole-1-yl)phenoxy)propyl)morpholine hydrochloride], in data set [1], the “CLint (intrinsic body clearance)” value is given as 127.7 mL/(min·g·protein) and the half-life at 0.1 μmol/L is 16 min.

On to `Cc1ccc2c(c1)nc(/C=C/c1cccc3cccnc13)n2-c1ccccc1` [Compound 4, (E)-8-(2-(5-Methyl-1-phenyl-1H-benzo[d]imidazol-2-yl)vinyl)quinoline], for which, in [9], the half-life at 1.5 μmol/L came out at 17.4 min. Besides, the “enhancement of PDE10A inhibition relative to compound 2” value at PDE10A (449–770) (C=C bond instead of C–C single bond) was 3 fold.

A word on the half-life: it is how long it takes for the measured level to halve. A high value points to slow decline. As a reminder, the IC50 is the midpoint of a concentration-inhibition curve. A low value points to greater potency in that assay. The solubility is how much of the substance goes into solution per volume. A low value points to little dissolved substance. As usually defined, the AUC(0-inf) is the area under the concentration-time curve extrapolated to infinity. As usually defined, the AUC(0-t) is exposure summed from dosing to a finite time, without extrapolation to infinity. A high value points to high exposure. What is called Cmax is the maximum level reached in the sampled fluid or tissue. One may read the MRT last as a mean duration of stay, worked out from the concentration-time curve. As usually defined, the Tmax is the time at which the peak concentration occurs. As a reminder, the clearance is the volume of plasma or blood freed of the substance per unit of time. A lower clearance goes with a low capacity for elimination.
